The target of one assay is human RIP1 kinase domain (2-375) (Homo sapiens (Human), UniProt Q13546). Description: biochemical. Format: biochemical. Conditions: Table 1; apparent Ki (Morrison tight-binding fit); 50 nM RIP1 kinase domain, 50 uM ATP, 2 hours incubation; read-out: RIP1 Ki. An outline of the steps: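 Ki^app comes from Morrison tight-binding fits of fractional activity versus compound concentration. Activity was read as ADP production, via tracer displacement lowering fluorescence polarization (633 nm laser). Conditions: 2 h, 50 nM insect-cell-expressed enzyme, 50 uM ATP, 30 mM MgCl2, 1 mM DTT, 0.5% DMSO, pH 7.5 Hepes.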
Chain of human RIP1 kinase domain (2-375) (Q13546 2-375): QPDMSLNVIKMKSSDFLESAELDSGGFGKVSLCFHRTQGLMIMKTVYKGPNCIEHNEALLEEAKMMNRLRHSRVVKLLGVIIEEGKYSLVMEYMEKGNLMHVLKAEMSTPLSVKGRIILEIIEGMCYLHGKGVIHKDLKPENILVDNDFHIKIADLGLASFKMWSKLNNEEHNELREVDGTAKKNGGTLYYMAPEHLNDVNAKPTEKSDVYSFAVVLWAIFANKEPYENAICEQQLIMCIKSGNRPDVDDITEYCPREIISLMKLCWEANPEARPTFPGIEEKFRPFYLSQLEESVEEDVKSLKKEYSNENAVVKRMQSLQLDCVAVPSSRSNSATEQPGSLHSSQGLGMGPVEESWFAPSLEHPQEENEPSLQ
For `CC(C)(C)C1CCc2onc(C(=O)N[C@H]3COc4ccccc4NC3=O)c2C1` (stereo partly drawn) [Example 65, 5-(tert-butyl)-N-((S)-4-oxo-2,3,4,5-tetrahydrobenzo[b][1,4]oxazepin-3-yl)-4,5,6,7-tetrahydrobenzo[d]isoxazole-3-carboxamide], the Ki turned out to be 404 nM.

On to `CC1CCc2noc(C(=O)N[C@H]3COc4ccccc4N(C)C3=O)c2C1` (stereo partly drawn) [Example 66, 5-methyl-N-((S)-5-methyl-4-oxo-2,3,4,5-tetrahydrobenzo[b][1,4]oxazepin-3-yl)-4,5,6,7-tetrahydrobenzo[c]isoxazole-3-carboxamide], for which the Ki amounted to 37.4 nM.

On to `CC1CCc2onc(C(=O)N[C@H]3COc4ccccc4N(C)C3=O)c2C1` (stereo partly drawn) [Example 67, 5-methyl-N-((S)-5-methyl-4-oxo-2,3,4,5-tetrahydrobenzo[b][1,4]oxazepin-3-yl)-4,5,6,7-tetrahydrobenzo[d]isoxazole-3-carboxamide], for which the Ki is 107 nM.

For the molecule `C[C@H]1CCc2onc(C(=O)N[C@H]3COc4ccccc4N(C)C3=O)c2C1` [Example 68, (S)-5-methyl-N-((S)-5-methyl-4-oxo-2,3,4,5-tetrahydrobenzo[b][1,4]oxazepin-3-yl)-4,5,6,7-tetrahydrobenzo[d]isoxazole-3-carboxamide], the Ki was 53.8 nM.

Take `C[C@H]1CCc2noc(C(=O)N[C@H]3COc4ccccc4N(C)C3=O)c2C1` [Example 69, (S)-5-methyl-N-((S)-5-methyl-4-oxo-2,3,4,5-tetrahydrobenzo[b][1,4]oxazepin-3-yl)-4,5,6,7-tetrahydrobenzo[c]isoxazole-3-carboxamide]: the Ki came out at 84.5 nM.

Consider `C[C@@H]1CCc2onc(C(=O)N[C@H]3COc4ccccc4N(C)C3=O)c2C1` [Example 70, (R)-5-methyl-N-((S)-5-methyl-4-oxo-2,3,4,5-tetrahydrobenzo[b][l,4]oxazepin-3-yl)-4,5,6,7-tetrahydrobenzo[d]isoxazole-3-carboxamide], for which the Ki worked out at 219 nM.

In the case of `C[C@@H]1CCc2noc(C(=O)N[C@H]3COc4ccccc4N(C)C3=O)c2C1` [Example 71, (R)-5-methyl-N-((S)-5-methyl-4-oxo-2,3,4,5-tetrahydrobenzo[b][1,4]oxazepin-3-yl)-4,5,6,7-tetrahydrobenzo[c]isoxazole-3-carboxamide], the Ki came to 19.2 nM.

For the molecule `Cc1cc2n(n1)CCC(NC(=O)c1ncn(Cc3ccccc3)n1)C(=O)N2C` (stereo not shown) [Example 72, 1-benzyl-N-(2,4-dimethyl-5-oxo-5,6,7,8-tetrahydro-4H-pyrazolo[1,5-a][1,3]diazepin-6-yl)-1H-1,2,4-triazole-3-carboxamide], the Ki amounted to 68 nM.

`CN1C(=O)[C@@H](NC(=O)c2ncn(Cc3ccccc3)n2)CCn2nccc21` [Example 73, (S)-1-benzyl-N-(4-methyl-5-oxo-5,6,7,8-tetrahydro-4H-pyrazolo[1,5-a][1,3]diazepin-6-yl)-1H-1,2,4-triazole-3-carboxamide]: the Ki is 27 nM.

Regarding `CCC1CCc2n[nH]c(C(=O)N[C@H]3COc4ccccc4N(C)C3=O)c2C1` (stereo partly drawn) [Example 74, 5-ethyl-N-((S)-5-methyl-4-oxo-2,3,4,5-tetrahydrobenzo[b][1,4]oxazepin-3-yl)-4,5,6,7-tetrahydro-2H-indazole-3-carboxamide], the Ki amounted to 13 nM.

On to `CN1C(=O)[C@@H](NC(=O)c2ncn3ccc(C(F)(F)F)cc23)CCn2nccc21` [Example 75, (S)-N-(4-methyl-5-oxo-5,6,7,8-tetrahydro-4H-pyrazolo[1,5-a][1,3]diazepin-6-yl)-7-(trifluoromethyl)imidazo[1,5-a]pyridine-1-carboxamide], for which the Ki was found to be 231 nM.

In the case of `Cc1cc2n(n1)CCC(NC(=O)c1ncn3ccc(C(F)(F)F)cc13)C(=O)N2C` (stereo not shown) [Example 76, N-(2,4-dimethyl-5-oxo-5,6,7,8-tetrahydro-4H-pyrazolo[1,5-a][1,3]diazepin-6-yl)-7-(trifluoromethyl)imidazo[1,5-a]pyridine-1-carboxamide], the Ki was determined as 536 nM.

For the molecule `Cc1cc2n(n1)CC[C@H](NC(=O)c1nnc(Cc3ccccc3)[nH]1)C(=O)N2C` [Example 77, (S)-5-benzyl-N-(2,4-dimethyl-5-oxo-5,6,7,8-tetrahydro-4H-pyrazolo[1,5-a][1,3]diazepin-6-yl)-4H-1,2,4-triazole-3-carboxamide], the Ki was determined as 58 nM.

`CN1C(=O)[C@@H](NC(=O)c2n[nH]c3ccc(Cl)cc23)COc2ccccc21` [Example 78, (S)-5-chloro-N-(5-methyl-4-oxo-2,3,4,5-tetrahydrobenzo[b][1,4]oxazepin-3-yl)-1H-indazole-3-carboxamide]: the Ki was 21 nM.

As to `CN1C(=O)[C@@H](NC(=O)c2nnc(Cc3ccccc3)[nH]2)CCn2nc(C3CC3)cc21` [Example 79, (S)-5-benzyl-N-(2-cyclopropyl-4-methyl-5-oxo-5,6,7,8-tetrahydro-4H-pyrazolo[1,5-a][1,3]diazepin-6-yl)-4H-1,2,4-triazole-3-carboxamide], the Ki is 34 nM.

Turning to `CN1C(=O)[C@@H](NC(=O)c2nnc(Cc3ccccc3)[nH]2)CCn2nc(C(F)(F)F)cc21` [Example 80, (S)-5-benzyl-N-(4-methyl-5-oxo-2-(trifluoromethyl)-5,6,7,8-tetrahydro-4H-pyrazolo[1,5-a][1,3]diazepin-6-yl)-4H-1,2,4-triazole-3-carboxamide], the Ki was 64 nM.

Consider `CN1C(=O)[C@@H](NC(=O)c2nnc3ccc(C(F)(F)F)nn23)COc2ccccc21` [Example 81, (S)-N-(5-methyl-4-oxo-2,3,4,5-tetrahydrobenzo[b][1,4]oxazepin-3-yl)-6-(trifluoromethyl)-[1,2,4]triazolo[4,3-b]pyridazine-3-carboxamide], for which the Ki is 567 nM.

Turning to `CN1C(=O)[C@@H](NC(=O)c2nnc3ccc(C(F)(F)F)cn23)COc2ccccc21` [Example 82, (S)-N-(5-methyl-4-oxo-2,3,4,5-tetrahydrobenzo[b][1,4]oxazepin-3-yl)-6-(trifluoromethyl)-[1,2,4]triazolo[4,3-a]pyridine-3-carboxamide], the Ki was determined as 393 nM.

Still in this assay, the particulars now being: human RIP1 kinase domain (2-375), 50 uM ATP, 2 hours incubation, Transcreener ADP assay; read-out: RIP1 Ki.
Consider `CN1C(=O)[C@@H](NC(=O)c2n[nH]c3ccc(C#N)cc23)COc2ccccc21` [Example 83, (S)-5-cyano-N-(5-methyl-4-oxo-2,3,4,5-tetrahydrobenzo[b][1,4]oxazepin-3-yl)-1H-indazole-3-carboxamide], for which the Ki is 167 nM.

As to `CN1C(=O)[C@@H](NC(=O)c2nnc3ccc(C4CC4)cn23)COc2ccccc21` [Example 84, (S)-6-cyclopropyl-N-(5-methyl-4-oxo-2,3,4,5-tetrahydrobenzo[b][1,4]oxazepin-3-yl)-[1,2,4]triazolo[4,3-a]pyridine-3-carboxamide], the Ki amounted to 1400 nM.

Regarding `CN1C(=O)C(NC(=O)c2ncn(Cc3ccccc3)n2)CCn2nc(C(F)(F)F)cc21` (stereo not shown) [Example 85, 1-benzyl-N-(4-methyl-5-oxo-2-(trifluoromethyl)-5,6,7,8-tetrahydro-4H-pyrazolo[1,5-a][1,3]diazepin-6-yl)-1H-1,2,4-triazole-3-carboxamide], the Ki was found to be 76.8 nM.

With `Cc1cc(F)c2c(c1)OC[C@H](NC(=O)c1n[nH]c3c1C[C@@H](C(F)(F)F)CC3)C(=O)N2` [Example 88, (S)—N—((S)-6-fluoro-8-methyl-4-oxo-2,3,4,5-tetrahydrobenzo[b][1,4]oxazepin-3-yl)-5-(trifluoromethyl)-4,5,6,7-tetrahydro-1H-indazole-3-carboxamide], the Ki came out at 16.7 nM.

Values taken from patent US10988459B2 (priority 2015, dated 2021).
